Assay results taken from publication PMC7823780 (Viruses, 2021).
Entries after “also recorded” stand apart in the source; their conditions may differ.

Legend:
[1] = Cytotoxicity assay, MTT, mock-infected Vero-76; assay type: cell-based; conditions: Cercopithecus aethiops, mock-infected Vero-76 cells; mock-infected Vero-76, MTT; value printed without *
[2] = Cytotoxicity assay, MTT, mock-infected HeLa; assay type: cell-based; conditions: human, mock-infected HeLa cells
[3] = Cytotoxicity assay, mock-infected LLC-MK2; assay type: cell-based; conditions: Macaca mulatta, mock-infected LLC-MK2 cells, mock-infected LLC-MK2, MTT
[4] = Cytotoxicity assay, MTT, mock-infected BHK-21; assay type: cell-based; conditions: Syrian hamster, mock-infected BHK-21 cells; mock-infected BHK-21, MTT
[5] = Cytotoxicity assay, MTT, mock-infected MDBK; assay type: cell-based; conditions: bovine, mock-infected MDBK cells
EV-A71 [6] = assay: Inhibition of EV-A71-induced cytopathogenicity in Vero-76 cells (MTT); assay type: cell-based, human enterovirus A71 strain BrCr
CV-B3 = assay: Plaque reduction assay CV-B3; assay type: cell-based, human enterovirus B; conditions: Enterovirus B, CVB3; 50% reduction of plaque number; read-out: EC50 CV-B3
CV-B4 = assay: Plaque reduction assay CV-B4; assay type: cell-based, human enterovirus B; conditions: Enterovirus B, CVB4; 50% reduction of plaque number; read-out: EC50 CV-B4
CV-B5 = assay: Plaque reduction assay CV-B5; assay type: cell-based, human enterovirus B; conditions: Enterovirus B, CVB5; 50% reduction of plaque number; read-out: EC50 CV-B5
PV-1 = assay: microbe, parasite or virus in culture; assay type: cell-based; conditions: Enterovirus C, read-out: EC50 PV-1
EV-D68 = assay: Inhibition of EV-D68-induced cytopathogenicity in HeLa cells (MTT); assay type: cell-based, human enterovirus D 68 strain Fermon; conditions: Enterovirus D, EVD68, m.o.i. 0.01
Echo9 = assay: Plaque reduction assay Echo9; assay type: cell-based, human enterovirus B; conditions: Enterovirus B; 50% reduction of plaque number, LLC-MK2 cells
EV-A71 [7] = assay: Protective effect on EV-A71-infected Vero-76 monolayers (cell morphology); assay type: cell-based
EV-A71 [8] = assay: Apoptosis assay, Annexin V/PI flow cytometry, EV-A71-infected Vero-76; assay type: cell-based, human enterovirus A71 strain BrCr; conditions: 96 h, m.o.i. 0.1
Caco-2 cells = assay: Cell monolayer permeabilization (TEER); assay type: cell-based, human; conditions: Caco-2 monolayers, 20 µM, all time points up to 48 h
EV-A71 [9] = assay: Yield reduction assay; assay type: cell-based, human enterovirus A71 strain BrCr; conditions: Vero-76, m.o.i. 0.1, 100, 20, 4 and 0.8 µM, 96 h
EV-A71 [10] = assay: Virucidal activity assay; assay type: cell-based, human enterovirus A71 strain BrCr; conditions: 20 µM, 4 or 37 °C, 1 h
EV-A71 [11] = assay: Cell pretreatment assay; assay type: cell-based, human enterovirus A71 strain BrCr; conditions: Vero-76 pre-incubated 2 h with 20 µM, then infected
EV-A71 [12] = assay: Adsorption assay; assay type: cell-based, human enterovirus A71 strain BrCr; conditions: Vero-76, m.o.i. 1, 20 µM, 2 h at 4 °C
EV-A71 [13] = assay: Time-of-addition assay; assay type: cell-based, human enterovirus A71 strain BrCr; conditions: Vero-76, m.o.i. 1, 20 µM
EV-A71 [14] = assay: Penetration assay; assay type: cell-based, human enterovirus A71 strain BrCr; conditions: Enterovirus A, EVA71, 1 h; Vero-76, 100–0.8 µM, 60 min at 37 °C; read-out: EC50 of inhibition of viral penetration

CC(C)(C)c1ccc(-c2nc3cc(Cl)ccc3[nH]2)cc1 [Compound 2b, 2-(4-(Tert-Butyl)phenyl)-5-Chloro-1H-Benzo[d]imidazole]
CC50 [1]: > 100 µM
CC50 at 4 days [2]: 100 µM
CC50 at 5 days [3]: 12 µM
CC50 [4]: > 100 µM
CC50 [5]: > 100 µM
EC50 (EV-A71 [6]; 50% protection of Vero-76 cells from EV-A71-induced cytopathogenicity, MTT, m.o.i. 0.01): 3.5 µM
selectivity index (EV-A71 [6]; EV-A71, Vero-76): > 30
EC50 (CV-B3): 33 µM
EC50 (CV-B4): 25.5 µM
EC50 (CV-B5): 10 µM
EC50 (PV-1): 6 µM
EC50 (EV-D68): > 100 µM
EC50 (Echo9): 4 µM
protection of Vero-76 monolayer from EV-A71 infection (morphology) (EV-A71 [7]; 20 µM and 80 µM, m.o.i. 0.1): protect cells from EV-A71 infection
cytotoxic effect on Vero-76 monolayer (morphology) (EV-A71 [7]; up to a concentration of 80 µM): no evident cytotoxic effects
viability at 20 µM (EV-A71 [8]; Enterovirus A, EVA71, Vero-76, 20 µM, read-out: viability of EV-A71-infected cells): 90%
viability at 80 µM (EV-A71 [8]; Enterovirus A, EVA71, Vero-76, 80 µM, read-out: viability of EV-A71-infected cells): 80%
necrotic cells among EV-A71-infected cells (EV-A71 [8]; Vero-76, 20 µM): 10%
necrotic cells among EV-A71-infected cells (EV-A71 [8]; Vero-76, 80 µM): 20%
TEER values versus control (Caco-2 cells): not significantly different from control values; also recorded: did not induce any significant change in permeability
reduction in EV-A71 titer (yield reduction) (EV-A71 [9]): dose-dependent reduction
virucidal effect on EV-A71 infectivity (EV-A71 [10]): failed to affect the EV-A71 infectivity
inhibition after cell pre-incubation (EV-A71 [11]): no inhibition
virus titer in adsorption assay (EV-A71 [12]): detectable reduction in the virus titer
effect by time of addition (EV-A71 [13]): greatest effect when added along with the virus
EC50 (EV-A71 [14]): 6.2 µM
